In US8148391B2 (Cephalon, Inc., priority 2006, dated 2012):
Read-outs that look alike come from different tables or passages of the source.

Key:
[1] = biological target: T1, baculovirus-expressed ALK (Homo sapiens, UniProt Q9UM73); assay: ALK Kinase Assay (ELISA-type, time-resolved fluorescence); type: biochemical
T1 construct: host or cells: baculovirus expression system
Summary of the method: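 Substrate coating: phospholipase C-γ, 10 μg/mL in TBS. Kinase step: 30 ng/ml ALK, 15 min, 37° C. Detection and analysis: Eu-N1 PT66 antibody, with IC50 fitted as a sigmoidal variable-slope dose-response curve.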

[2] = biological target: T2, c-Met (cytoplasmic domain) (Homo sapiens, UniProt P08581); assay: c-Met Kinase Assay (same methods as for ALK, with modifications); type: biochemical
T2 construct: 10 ng/mL c-Met (cytoplasmic domain, Invitrogen Corporation #PV3143); purchased Invitrogen Corporation PV3143
T2 sequence (P08581 956-1390 limits assumed): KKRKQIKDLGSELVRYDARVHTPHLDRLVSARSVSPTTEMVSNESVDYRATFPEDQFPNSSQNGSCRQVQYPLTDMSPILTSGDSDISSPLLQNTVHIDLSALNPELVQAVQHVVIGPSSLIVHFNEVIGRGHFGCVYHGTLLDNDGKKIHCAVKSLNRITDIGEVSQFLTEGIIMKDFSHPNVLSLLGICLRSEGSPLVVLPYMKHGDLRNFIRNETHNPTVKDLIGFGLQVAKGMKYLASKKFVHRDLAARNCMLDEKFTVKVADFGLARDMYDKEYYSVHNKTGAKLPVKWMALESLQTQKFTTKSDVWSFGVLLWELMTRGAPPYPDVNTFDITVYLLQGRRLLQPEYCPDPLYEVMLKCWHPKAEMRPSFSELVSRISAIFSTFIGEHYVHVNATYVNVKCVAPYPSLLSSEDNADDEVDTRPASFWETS
Summary of the method: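 This plate-based kinase format uses immobilized phospholipase C-γ as substrate, phosphorylated by c-Met cytoplasmic domain (10 ng/mL) at 37° C for 15 minutes.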

[3] = ALK kinase inhibition, 1 μM ATP (Km level), read-out: ALK Activity
[4] = c-Met kinase inhibition, 1 μM ATP (Km level), read-out: cMet Activity
[5] = 1 μM ATP (Km level), 30 ng/ml ALK, 37° C., 15 minutes, read-out: ALK Activity (ALK kinase inhibition, IC50 class)
[6] = 1 μM ATP (Km level), 10 ng/mL c-Met, read-out: cMet Activity (c-Met kinase inhibition, IC50 class)
[7] = ALK kinase inhibition, 1 μM ATP, read-out: ALK Activity
[8] = c-Met kinase inhibition, 1 μM ATP, read-out: cMet Activity

T1 sequence (Q9UM73 19-1620): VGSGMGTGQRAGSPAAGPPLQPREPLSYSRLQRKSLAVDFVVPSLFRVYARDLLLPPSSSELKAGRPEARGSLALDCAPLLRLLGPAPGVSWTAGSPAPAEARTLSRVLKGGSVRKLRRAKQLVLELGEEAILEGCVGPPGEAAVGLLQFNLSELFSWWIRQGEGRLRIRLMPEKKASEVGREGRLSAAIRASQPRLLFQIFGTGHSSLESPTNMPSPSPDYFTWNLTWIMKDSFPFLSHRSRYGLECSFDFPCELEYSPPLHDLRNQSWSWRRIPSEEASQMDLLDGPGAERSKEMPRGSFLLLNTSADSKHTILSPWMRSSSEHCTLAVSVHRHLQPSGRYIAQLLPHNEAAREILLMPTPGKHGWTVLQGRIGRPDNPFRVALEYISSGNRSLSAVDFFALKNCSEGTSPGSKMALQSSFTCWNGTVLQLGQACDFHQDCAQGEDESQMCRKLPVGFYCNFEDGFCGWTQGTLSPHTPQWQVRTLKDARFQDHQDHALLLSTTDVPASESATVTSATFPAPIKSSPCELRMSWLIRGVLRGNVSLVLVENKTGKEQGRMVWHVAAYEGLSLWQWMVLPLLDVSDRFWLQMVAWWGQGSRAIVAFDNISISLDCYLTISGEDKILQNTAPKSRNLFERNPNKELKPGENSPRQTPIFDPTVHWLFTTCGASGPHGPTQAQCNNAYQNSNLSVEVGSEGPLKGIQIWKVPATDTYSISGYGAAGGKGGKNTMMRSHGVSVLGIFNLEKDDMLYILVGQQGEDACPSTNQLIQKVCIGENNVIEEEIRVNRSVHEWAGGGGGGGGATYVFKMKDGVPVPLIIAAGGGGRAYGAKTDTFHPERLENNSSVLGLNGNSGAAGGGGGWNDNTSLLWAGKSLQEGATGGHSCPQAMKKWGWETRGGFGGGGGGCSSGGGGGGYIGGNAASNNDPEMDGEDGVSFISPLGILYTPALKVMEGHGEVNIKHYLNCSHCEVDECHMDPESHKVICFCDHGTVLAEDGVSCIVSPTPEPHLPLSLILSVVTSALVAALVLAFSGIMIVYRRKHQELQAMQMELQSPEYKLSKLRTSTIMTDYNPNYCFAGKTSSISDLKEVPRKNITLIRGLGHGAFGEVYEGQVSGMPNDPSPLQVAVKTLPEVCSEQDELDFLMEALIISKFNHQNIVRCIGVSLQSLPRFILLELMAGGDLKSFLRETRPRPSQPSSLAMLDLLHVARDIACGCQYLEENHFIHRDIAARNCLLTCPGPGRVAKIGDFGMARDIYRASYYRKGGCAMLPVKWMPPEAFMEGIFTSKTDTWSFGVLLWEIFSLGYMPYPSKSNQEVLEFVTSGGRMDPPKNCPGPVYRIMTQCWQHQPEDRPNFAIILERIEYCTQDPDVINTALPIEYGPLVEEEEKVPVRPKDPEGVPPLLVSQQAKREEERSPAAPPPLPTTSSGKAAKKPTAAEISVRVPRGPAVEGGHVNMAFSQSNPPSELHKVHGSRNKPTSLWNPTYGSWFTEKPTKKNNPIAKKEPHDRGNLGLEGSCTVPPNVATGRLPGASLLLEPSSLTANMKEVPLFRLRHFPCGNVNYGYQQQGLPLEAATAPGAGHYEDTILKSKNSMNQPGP

Row | IC50 [1, 3] | IC50 [2, 4] | IC50 [1, 7] | IC50 [2, 8] | Compound | also measured
1 |  |  | 100 to 1000 nM | < 100 nM | CCN1CC(=O)N(CC)c2cc(Nc3ncc(Cl)c(Nc4c(C)csc4C(=O)NC)n3)ccc2C1 [Example 1874, 3-[5-chloro-2-(1,4-diethyl-2-oxo-2,3,4,5-tetrahydro-1H-benzo[e][1,4]diazepin-8-ylamino)-pyrimidin-4-ylamino]-4-methyl-thiophene-2-carboxylic acid methylamide] | 
2 |  |  | < 100 nM | < 100 nM | CNC(=O)c1cccc(F)c1Nc1nc(Nc2ccc3c(c2)CCN(CCOC)CC3)ncc1Br [Example 1471, 2-{5-Bromo-2-[3-(2-methoxy-ethyl)-2,3,4,5-tetrahydro-1H-benzo[d]azepin-7-ylamino]-pyrimidin-4-ylamino}-3-fluoro-N-methyl-benzamide] | 
3 |  |  | 1000 to 10000 nM | 100 to 1000 nM | CNC(=O)c1cc(F)ccc1Nc1nc(Nc2ccc3c(c2)-n2ccnc2CCC3)ncc1Cl [Example 1841, 2-[5-Chloro-2-(5,6-dihydro-4H-3,10b-diaza-benzo[e]azulen-9-ylamino)-pyrimidin-4-ylamino]-5-fluoro-N-methyl-benzamide] | 
4 |  |  | 100 to 1000 nM | 100 to 1000 nM | CNC(=O)c1sccc1Nc1nc(Nc2ccc3c(c2)N(C(=O)CN2CCCC2)CCCO3)ncc1Cl [Example 1705, 3-{5-Chloro-2-[9-(2-pyrrolidin-1-yl-acetyl)-6,7,8,9-tetrahydro-5-oxa-9-aza-benzocyclohepten-2-ylamino]-pyrimidin-4-ylamino}-thiophene-2-carboxylic acid methylamide] | 
5 |  |  | 1000 to 10000 nM | 100 to 1000 nM | CNC(=O)c1ccccc1Nc1nc(Nc2ccc3c(c2)CC(=O)N(C)CC3)ncc1Cl [Example 1815, 2-[5-Chloro-2-(3-methyl-4-oxo-2,3,4,5-tetrahydro-1H-benzo[d]azepin-7-ylamino)-pyrimidin-4-ylamino]-N-methylbenzamide] | 
6 |  |  | < 100 nM | < 100 nM | COCC(=O)NC1CC(C)(C)c2ccc(Nc3ncc(Cl)c(Nc4c(F)cccc4C(=O)NCC#N)n3)cc2NC1=O (stereo not shown) [Example 1637, 2-{5-Chloro-2-[3-(2-methoxy-acetylamino)-5,5-dimethyl-2-oxo-2,3,4,5-tetrahydro-1H-benzo[b]azepin-8-ylamino]-pyrimidin-4-ylamino}-N-cyanomethyl-3-fluoro-benzamide] | 
7 |  |  | 100 to 1000 nM | 100 to 1000 nM | C#CCNC(=O)c1cccc(F)c1Nc1nc(Nc2ccc3c(c2)N(C(=O)CN2CCCC2)CCCC3(C)C)ncc1Cl [Example 1604, 2-{5-Chloro-2-[5,5-dimethyl-1-(2-pyrrolidin-1-yl-acetyl)-2,3,4,5-tetrahydro-1H-benzo[b]azepin-8-ylamino]-pyrimidin-4-ylamino}-3-fluoro-N-prop-2-ynyl-benzamide] | 

The next lines start with the compound.

Row | Compound | IC50 [1, 3] | IC50 [2, 4] | IC50 [1, 7] | IC50 [2, 8] | also measured
8 | CS(=O)(=O)N1CCc2ccc(Nc3ncc(Cl)c(NC4C5C=CC(C5)C4C(N)=O)n3)cc2CC1 (stereo not drawn) [Example 321, (2-exo, 3-exo)-3-[5-Chloro-2-(3-methanesulfonyl-2,3,4,5-tetrahydro-1H-benzo[d]azepin-7-ylamino)-pyrimidin-4-ylamino]-bicyclo[2.2.1]hept-5-ene-2-carboxylic acid amide] | < 100 nM | 100 to 1000 nM |  |  | 
9 | COc1cc2c(cc1Nc1ncc(Cl)c(Nc3ccccc3S(=O)(=O)N3CCCC3)n1)CCC(NCCO)CC2 (stereo not shown) [Example 1087, 2-(2-{5-Chloro-4-[2-(pyrrolidine-1-sulfonyl)-phenylamino]-pyrimidin-2-ylamino}-3-methoxy-6,7,8,9-tetrahydro-5H-benzocyclohepten-7-ylamino)-ethanol] |  |  |  |  | IC50 [1, 5]: < 100 nM; IC50 [2, 6]: 1000 to 10000 nM
10 | CNC(=O)c1ccccc1Nc1nc(Nc2ccc3c(c2)CCC(NCC(F)(F)F)CC3)ncc1Cl (stereo not shown) [Example 651, 2-{5-Chloro-2-[7-(2,2,2-trifluoro-ethylamino)-6,7,8,9-tetrahydro-5H-benzocyclohepten-2-ylamino]-pyrimidin-4-ylamino}-N-methyl-benzamide] |  |  |  |  | IC50 ([1]; 1 μM ATP (Km level), read-out: ALK Activity (ALK Kinase Inhibition, IC50)): < 100 nM; IC50 ([2]; 1 μM ATP (Km level), read-out: cMet Activity (c-Met Kinase Inhibition, IC50)): < 100 nM
11 | COc1cccnc1-c1ccccc1Nc1nc(Nc2ccc3c(c2)CCC(O)CC3)ncc1Cl (stereo not shown) [Example 1019, 2-{5-Chloro-4-[2-(3-methoxy-pyridin-2-yl)-phenylamino]-pyrimidin-2-ylamino}-6,7,8,9-tetrahydro-5H-benzocyclohepten-7-ol] |  |  |  |  | IC50 [1, 5]: 100 to 1000 nM; IC50 [2, 6]: 100 to 1000 nM
12 | C#CCN1C2CCC1c1cc(Nc3ncc(Cl)c(Nc4ccccc4C(=O)NC)n3)ccc1C2 (stereo not shown) [Example 69, 2-[5-Chloro-2-(12-prop-2-ynyl-12-aza-tricyclo[7.2.1.0*2,7*]dodeca-2(7),3,5-trien-4-ylamino)-pyrimidin-4-ylamino]-N-methyl-benzamide] | < 100 nM | < 100 nM |  |  | 
13 | 2-[5-Chloro-2-(3-methyl-4-oxo-2,3,4,5-tetrahydro-1H-benzo[d]azepin-7-ylamino)-pyrimidin-4-ylamino]-3,5,N-trimethyl-benzamide [Example 1818] |  |  | 1000 to 10000 nM | 100 to 1000 nM | 
14 | CNC(=O)c1ccccc1Nc1nc(Nc2ccc(OC)c3c2NC(=O)CCC3)ncc1Cl [Example 18, 2-[5-Chloro-2-(6-methoxy-2-oxo-2,3,4,5-tetrahydro-1H-benzo[b]azepin-9-ylamino)-pyrimidin-4-ylamino]-N-methyl-benzamide] | < 100 nM | 1000 to 10000 nM |  |  | 
15 | CCNC(=O)c1ccccc1Nc1nc(Nc2cc3c(cc2OC)CC(=O)NCC3)ncc1Cl [Example 265, 2-[5-Chloro-2-(8-methoxy-2-oxo-2,3,4,5-tetrahydro-1H-benzo[d]azepin-7-ylamino)-pyrimidin-4-ylamino]-N-ethyl-benzamide] | < 100 nM | 100 to 1000 nM |  |  | 
16 | CNS(=O)(=O)c1ccccc1Nc1nc(Nc2ccc3c(c2)CCCC(=O)N3)ncc1Cl [Example 5, 2-[5-Chloro-2-(2-oxo-2,3,4,5-tetrahydro-1H-benzo[b]azepin-7-ylamino)-pyrimidin-4-ylamino]-N-methyl-benzenesulfonamide] | < 100 nM | < 100 nM |  |  | 
17 | CCN1CCN(CC(=O)N(C)C)Cc2cc(OC)c(Nc3ncc(Cl)c(N[C@@H]4CCCC[C@H]4NS(C)(=O)=O)n3)cc21 [Example 1461, 2-{8-[5-Chloro-4-((1R,2R)-2-methanesulfonylamino-cyclohexylamino)-pyrimidin-2-ylamino]-1-ethyl-7-methoxy-1,2,3,5-tetrahydro-benzo[e][1,4]diazepin-4-yl}-N,N-dimethyl-acetamide] |  |  | < 100 nM | > 10000 nM | 
18 | CNC(=O)c1cccc(Cl)c1Nc1nc(Nc2ccc3c(c2)CCCC(=O)N3CCOC)ncc1Cl [Example 357, 3-Chloro-2-{5-chloro-2-[1-(2-methoxy-ethyl)-2-oxo-2,3,4,5-tetrahydro-1H-benzo[b]azepin-7-ylamino]-pyrimidin-4-ylamino}-N-methyl-benzamide] | 1000 to 10000 nM | < 100 nM |  |  | 
19 | CNC(=O)c1cccc(Cl)c1Nc1nc(Nc2ccc3c(c2)CCN(CC(=O)N(C)C)CC3)ncc1Cl [Example 1370, 3-Chloro-2-[5-chloro-2-(3-dimethylcarbamoylmethyl-2,3,4,5-tetrahydro-1H-benzo[d]azepin-7-ylamino)-pyrimidin-4-ylamino]-N-methyl-benzamide] |  |  |  |  | IC50 [1, 5]: 100 to 1000 nM; IC50 [2, 6]: < 100 nM
20 | COc1cc2c(cc1Nc1ncc(Cl)c(Nc3ccc(N(C)C)cc3OC)n1)CCN(Cc1ncco1)CC2 [Example 1172, 5-Chloro-N*4*-(4-dimethylamino-2-methoxy-phenyl)-N*2*-(8-methoxy-3-oxazol-2-ylmethyl-2,3,4,5-tetrahydro-1H-benzo[d]azepin-7-yl)-pyrimidine-2,4-diamine] |  |  |  |  | IC50 [1, 5]: < 100 nM; IC50 [2, 6]: > 10000 nM
